Experiment [1] can be described thus: growth induction of Burl-1 ts yeast mutant, dose response, counter-screen for SUMOylation pathway inhibitor project, whole organism, S. cerevisiae, luminescence (AID 463199). Type of experiment: functional.
Experiment [2] addresses T1, Alkaline phosphatase, tissue-nonspecific isozyme (Homo sapiens, UniProt P05186).
T1 sequence (P05186 whole entry): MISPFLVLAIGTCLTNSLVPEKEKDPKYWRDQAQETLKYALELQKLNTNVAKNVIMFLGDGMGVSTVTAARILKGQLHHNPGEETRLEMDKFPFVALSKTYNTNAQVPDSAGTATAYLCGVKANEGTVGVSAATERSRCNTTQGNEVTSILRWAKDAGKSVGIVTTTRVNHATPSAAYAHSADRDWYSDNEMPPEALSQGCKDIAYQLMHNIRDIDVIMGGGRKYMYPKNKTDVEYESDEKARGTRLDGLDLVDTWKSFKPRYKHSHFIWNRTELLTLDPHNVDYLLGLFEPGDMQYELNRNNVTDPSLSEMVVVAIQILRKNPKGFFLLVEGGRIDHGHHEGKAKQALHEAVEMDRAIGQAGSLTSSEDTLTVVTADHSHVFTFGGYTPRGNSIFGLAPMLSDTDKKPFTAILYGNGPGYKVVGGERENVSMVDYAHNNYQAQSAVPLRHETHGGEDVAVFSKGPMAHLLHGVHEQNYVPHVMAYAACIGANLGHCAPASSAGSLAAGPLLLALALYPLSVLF
Briefly: human TNAP enzyme inhibitors, SAR follow-up, biochemical, luminescent, dose response (AID 1056).

Experiment [3] addresses Alkaline phosphatase, placental type (Homo sapiens, UniProt P05187). The experiment is described as follows: PLAP enzyme inhibitors, confirmation, biochemical, luminescence (AID 1512). Type of experiment: functional.
Experiment [4] is described as follows: Luminescence Cell-Based Dose Response HTS to Identify Activators of Luciferase Translation or Activity in H4 […] Cells. [Related pubchem assays: 1829 (Project Summary), 1814 (Primary HTS)]. Type of experiment: functional.
The subject of experiment [5] is Streptococcus sp. 'group A'. The experiment is described as follows: growth inhibition of control SK(-) GAS strain, dose response, counter-screen for streptokinase expression inhibitor project, luminescence, kanamycin, BacTiterGlo, confirmation (AID 1900). Type of experiment: functional, organism-based.
For a further experiment, the target named is T2, Streptokinase A (Streptococcus pyogenes serotype M1, UniProt P10520).
T2 sequence (P10520 whole entry): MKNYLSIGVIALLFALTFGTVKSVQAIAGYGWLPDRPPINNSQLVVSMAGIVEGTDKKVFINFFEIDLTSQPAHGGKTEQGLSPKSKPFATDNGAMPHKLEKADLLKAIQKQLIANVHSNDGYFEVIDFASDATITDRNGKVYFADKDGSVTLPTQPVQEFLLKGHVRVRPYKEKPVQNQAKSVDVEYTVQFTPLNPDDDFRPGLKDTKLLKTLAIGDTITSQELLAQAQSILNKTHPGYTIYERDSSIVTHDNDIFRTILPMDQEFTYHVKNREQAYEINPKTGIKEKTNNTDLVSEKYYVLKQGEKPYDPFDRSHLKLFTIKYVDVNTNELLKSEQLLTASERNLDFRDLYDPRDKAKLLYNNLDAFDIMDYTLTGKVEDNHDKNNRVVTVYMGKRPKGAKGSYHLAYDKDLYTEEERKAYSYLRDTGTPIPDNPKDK
The experiment is described as follows: S. pyogenes streptokinase expression inhibitors, potency, dose response, plasminogen activation absorbance, OD405 (AID 1914).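 Also: secreted streptokinase activity via plasminogen activation per viability signal from cell pellet.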 Type of experiment: functional, Streptococcus pyogenes M1 GAS.

The nature of another experiment: cells. Type of experiment: functional.
In another experiment the test system is Streptococcus. Briefly: Group A Streptococcus viability loss, dose response, counter-screen for streptokinase expression inhibitor project, luminescence, BacTiterGlo (AID 1915).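 Also: potency for reduction of bacterial viability or growth.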 Type of experiment: functional, organism-based.
A short description of experiment [6]: THP-1 cell cytotoxicity, dose response, cytotoxicity control for non-replicating M. tuberculosis project (AID 489025). Type of experiment: functional.
Experiment [7] in a line: Vero E6 cell cytotoxicity, dose response, cytotoxicity control for non-replicating M. tuberculosis project, secondary assay (AID 492998). Type of experiment: functional, VeroE6. Particulars: Vero C1008.
Experiment [8] has as its target T3, Microphthalmia-associated transcription factor (Homo sapiens, UniProt O75030).
T3 sequence (O75030 whole entry): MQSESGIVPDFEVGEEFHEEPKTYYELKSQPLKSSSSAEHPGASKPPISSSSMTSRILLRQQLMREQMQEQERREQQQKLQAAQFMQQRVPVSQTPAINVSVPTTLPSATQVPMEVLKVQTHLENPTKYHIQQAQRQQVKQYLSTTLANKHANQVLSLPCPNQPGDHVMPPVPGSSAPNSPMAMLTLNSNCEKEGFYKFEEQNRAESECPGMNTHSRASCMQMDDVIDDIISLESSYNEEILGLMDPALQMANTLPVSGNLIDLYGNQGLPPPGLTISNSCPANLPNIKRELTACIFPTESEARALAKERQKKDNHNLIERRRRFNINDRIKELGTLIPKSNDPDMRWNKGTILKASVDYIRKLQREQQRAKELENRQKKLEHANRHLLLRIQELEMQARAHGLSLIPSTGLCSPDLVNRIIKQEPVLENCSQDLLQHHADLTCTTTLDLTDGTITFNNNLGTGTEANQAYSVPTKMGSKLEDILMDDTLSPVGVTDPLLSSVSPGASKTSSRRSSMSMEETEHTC
The experiment is described as follows: TRPM1 promoter luciferase signal decrease, dose response, MITF inhibitor project, cell-based, SK-MEL-5, cherry-picked, set 3 (AID 493073).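 Also: SK-MEL-5 melanoma cells with luciferase driven by the MITF target TRPM1 promoter.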 Type of experiment: functional.

Experiment [9] concerns the target T4, Rac GTPase-activating protein 1 (Homo sapiens, UniProt Q9H0H5).
T4 sequence (Q9H0H5 whole entry): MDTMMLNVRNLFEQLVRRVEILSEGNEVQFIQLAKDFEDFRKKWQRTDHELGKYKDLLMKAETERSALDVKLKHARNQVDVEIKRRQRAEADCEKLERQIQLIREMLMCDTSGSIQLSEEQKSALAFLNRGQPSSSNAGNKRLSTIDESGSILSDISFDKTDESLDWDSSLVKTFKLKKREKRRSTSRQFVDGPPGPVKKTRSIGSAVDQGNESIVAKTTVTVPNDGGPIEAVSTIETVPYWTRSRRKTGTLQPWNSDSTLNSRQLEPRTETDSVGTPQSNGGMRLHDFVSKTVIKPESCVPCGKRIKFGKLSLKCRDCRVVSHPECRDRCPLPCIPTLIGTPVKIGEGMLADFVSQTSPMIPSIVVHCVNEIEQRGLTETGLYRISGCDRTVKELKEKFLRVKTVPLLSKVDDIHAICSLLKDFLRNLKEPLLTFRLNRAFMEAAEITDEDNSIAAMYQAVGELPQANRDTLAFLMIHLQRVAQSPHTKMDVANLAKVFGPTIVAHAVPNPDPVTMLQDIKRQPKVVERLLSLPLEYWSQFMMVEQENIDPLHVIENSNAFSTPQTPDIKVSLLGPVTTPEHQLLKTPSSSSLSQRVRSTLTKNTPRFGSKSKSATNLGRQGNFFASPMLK
Briefly: MgcRacGAP GTPase-activating activity inhibitors, confirmation, biochemical, ADP Hunter fluorescence, primary and confirmatory (AID 624330). Type of experiment: functional.

For experiment [10], the target named is T5, Heat shock factor protein 1 (Mus musculus, UniProt P38532).
T5 sequence (P38532 whole entry): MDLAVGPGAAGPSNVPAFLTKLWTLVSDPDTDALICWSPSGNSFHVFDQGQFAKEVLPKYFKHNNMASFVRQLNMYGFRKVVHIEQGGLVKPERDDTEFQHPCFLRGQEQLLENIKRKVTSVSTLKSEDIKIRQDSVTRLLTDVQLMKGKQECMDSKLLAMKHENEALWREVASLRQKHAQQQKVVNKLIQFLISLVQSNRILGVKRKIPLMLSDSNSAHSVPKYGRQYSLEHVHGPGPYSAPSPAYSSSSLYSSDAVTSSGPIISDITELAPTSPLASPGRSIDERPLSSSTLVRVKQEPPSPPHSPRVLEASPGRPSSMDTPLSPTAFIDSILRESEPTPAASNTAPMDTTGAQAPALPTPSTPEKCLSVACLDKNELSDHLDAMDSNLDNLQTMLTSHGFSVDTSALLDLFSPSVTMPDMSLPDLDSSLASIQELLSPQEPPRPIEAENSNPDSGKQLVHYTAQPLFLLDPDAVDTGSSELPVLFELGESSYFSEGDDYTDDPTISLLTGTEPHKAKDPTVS
The experiment is described as follows: inhibition of MG132-induced HSE-luciferase signal, confirmation, cell-based, NIH3T3, luminescence, dose retest (AID 2382).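 Also: NIH3T3 fibroblasts with HSF1-driven luciferase reporter stressed by proteasome inhibitor MG132; luminescence from HSF1-driven luciferase expression after 8 hours of MG132 stress.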 Type of experiment: functional.

Experiment [11] concerns the target T6, Tyrosine-protein phosphatase non-receptor type 7 (Homo sapiens, UniProt P35236).
T6 sequence (P35236 whole entry): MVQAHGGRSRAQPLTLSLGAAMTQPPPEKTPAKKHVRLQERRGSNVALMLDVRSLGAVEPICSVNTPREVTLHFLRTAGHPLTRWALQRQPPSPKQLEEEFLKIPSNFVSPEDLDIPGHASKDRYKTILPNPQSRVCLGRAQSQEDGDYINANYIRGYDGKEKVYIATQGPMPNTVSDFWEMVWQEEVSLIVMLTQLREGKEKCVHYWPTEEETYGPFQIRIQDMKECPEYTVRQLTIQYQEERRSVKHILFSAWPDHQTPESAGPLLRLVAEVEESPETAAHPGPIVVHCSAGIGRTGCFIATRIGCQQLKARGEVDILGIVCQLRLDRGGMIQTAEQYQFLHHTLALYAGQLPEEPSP
The experiment is described as follows: SAR analysis of chemical inhibitors of HePTP using a Fluorescent assay - Set 2. [Related pubchem assays (depositor defined):AID1059, AID1077, AID1661, AID2085, AID521]. Type of experiment: functional.

Experiment [12] addresses Dual specificity protein phosphatase 3 (Homo sapiens, UniProt P51452). The experiment is described as follows: SAR VHR1 Fluorescent Assay for In Vitro dose response studies Set 2. [Related pubchem assays (depositor defined):AID1654, AID1661, AID1878]. Type of experiment: functional.
Experiment [13] concerns the target T7, Ubiquitin-conjugating enzyme E2 N (Homo sapiens, UniProt P61088).
T7 sequence (P61088 whole entry): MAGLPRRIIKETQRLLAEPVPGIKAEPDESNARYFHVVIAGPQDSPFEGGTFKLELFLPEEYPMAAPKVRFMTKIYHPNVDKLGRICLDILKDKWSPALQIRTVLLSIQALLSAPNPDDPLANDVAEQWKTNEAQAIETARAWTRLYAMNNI
Type of experiment: functional.

In another experiment the target is T8, Bcl-2-related protein A1 (Mus musculus, UniProt Q07440).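 Also: confirmatory dose–response counterscreen on Bfl-1, used to check hits from a UBC13 polyubiquitin inhibitor campaign.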
T8 sequence (Q07440 whole entry): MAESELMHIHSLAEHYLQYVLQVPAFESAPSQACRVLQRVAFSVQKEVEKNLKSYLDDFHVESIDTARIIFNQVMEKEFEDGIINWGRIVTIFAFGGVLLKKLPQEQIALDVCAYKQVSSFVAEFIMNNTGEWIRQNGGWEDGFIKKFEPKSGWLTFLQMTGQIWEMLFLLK
Type of experiment: functional.

The target in experiment [14] is T7, Ubiquitin-conjugating enzyme E2 N. Type of experiment: functional. The source holds these as a separate data set.
Experiment [15] is described as follows: Luminescence Cell-Based Dose Retest to Confirm Inhibitors of Cancer Stem Cells. [Related pubchem assays (depositor defined):AID2717, AID2721]. Type of experiment: functional. Particulars: Homo sapiens.
Experiment [16] concerns the target Eukaryotic translation initiation factor 4E (Mus musculus, UniProt P63073). Briefly: eIF4E–eIF4G protein interaction inhibitors, dose response, biochemical, TR-FRET (AID 855).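 Also: potency for disrupting eIF4E binding to eIF4GI seen as loss of FRET.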 Type of experiment: functional.
In experiment [17] the target is E3 ubiquitin-protein ligase XIAP (Homo sapiens, UniProt P98170). Briefly: Counter Screen using XIAP-Bir3 for Chemical Antagonists of Bir1/2 domains of IAP-family anti-apoptotic proteins. [Related pubchem assays (depositor defined):AID1018, AID1449, AID1514, AID1638, AID1749, AID1750, AID488957, AID488963].
Sequence of E3 ubiquitin-protein ligase XIAP (P98170 whole entry): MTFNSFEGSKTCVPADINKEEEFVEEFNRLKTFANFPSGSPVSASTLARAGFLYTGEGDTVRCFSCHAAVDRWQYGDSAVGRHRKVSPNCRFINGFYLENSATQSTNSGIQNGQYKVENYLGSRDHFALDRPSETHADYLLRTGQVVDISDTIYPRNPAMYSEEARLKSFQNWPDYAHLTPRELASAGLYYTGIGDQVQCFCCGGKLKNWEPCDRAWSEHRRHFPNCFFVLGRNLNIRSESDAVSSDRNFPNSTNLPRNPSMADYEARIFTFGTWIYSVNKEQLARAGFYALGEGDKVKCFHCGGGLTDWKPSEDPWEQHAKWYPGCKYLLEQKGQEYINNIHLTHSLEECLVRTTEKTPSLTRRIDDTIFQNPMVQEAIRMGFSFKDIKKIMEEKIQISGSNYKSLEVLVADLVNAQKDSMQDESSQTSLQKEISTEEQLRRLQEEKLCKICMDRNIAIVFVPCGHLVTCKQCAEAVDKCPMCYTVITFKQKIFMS

Each structure is given as a SMILES string. Active and inactive are the calls of the source.

Sequence of Dual specificity protein phosphatase 3 (P51452 whole entry): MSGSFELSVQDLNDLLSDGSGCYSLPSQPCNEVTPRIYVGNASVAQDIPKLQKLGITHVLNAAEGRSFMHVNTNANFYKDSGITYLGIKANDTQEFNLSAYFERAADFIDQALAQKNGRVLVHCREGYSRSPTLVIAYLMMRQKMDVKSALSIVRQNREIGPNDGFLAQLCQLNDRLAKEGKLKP
Sequence of Alkaline phosphatase, placental type (P05187 whole entry): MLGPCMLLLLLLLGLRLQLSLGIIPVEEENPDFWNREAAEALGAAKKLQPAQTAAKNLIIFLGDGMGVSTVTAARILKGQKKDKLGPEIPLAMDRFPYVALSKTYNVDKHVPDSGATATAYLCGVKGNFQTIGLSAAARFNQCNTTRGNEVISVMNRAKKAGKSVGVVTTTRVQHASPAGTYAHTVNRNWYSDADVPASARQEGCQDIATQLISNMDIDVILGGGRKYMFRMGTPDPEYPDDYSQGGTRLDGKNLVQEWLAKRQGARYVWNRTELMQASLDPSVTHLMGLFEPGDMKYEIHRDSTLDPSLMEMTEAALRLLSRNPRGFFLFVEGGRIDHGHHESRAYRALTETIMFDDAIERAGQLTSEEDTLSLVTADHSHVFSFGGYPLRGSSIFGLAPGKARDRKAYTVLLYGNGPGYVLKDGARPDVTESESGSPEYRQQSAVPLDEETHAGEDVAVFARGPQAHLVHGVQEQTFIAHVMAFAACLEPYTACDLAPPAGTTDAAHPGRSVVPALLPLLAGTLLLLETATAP
Sequence of Eukaryotic translation initiation factor 4E (P63073 whole entry): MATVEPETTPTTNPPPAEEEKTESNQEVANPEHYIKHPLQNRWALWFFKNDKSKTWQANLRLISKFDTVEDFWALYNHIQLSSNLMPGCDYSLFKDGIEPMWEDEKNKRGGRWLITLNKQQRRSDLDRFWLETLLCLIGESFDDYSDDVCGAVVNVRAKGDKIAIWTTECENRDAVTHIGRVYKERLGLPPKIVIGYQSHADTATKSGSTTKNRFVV

`O=C(CSc1nnc(CNC(=O)c2ccco2)o1)Nc1nc2ccccc2s1`: the AC50 in experiment [1] is 54 µM (active).
Regarding `Cc1ccc(NC2c3ncccc3C(=O)N2C2CCCCC2)cc1C` (centres undefined), the half-maximal activity concentration (AC50) in experiment [1] was 161 µM (active).
With `Clc1ccccc1-c1n[nH]c(-c2ccccc2)n1`, the concentration for half-maximal inhibition (IC50) in experiment [2] was 0.641 µM (active); in [3] it was > 100 µM (inactive). Also, the EC50 in experiment [4] is 0.348 µM (active).
For the compound `COc1ccc(C(=O)Nc2nnc(-c3ccccc3)o2)cc1OC`, the results for the concentration giving a half-maximal response (EC50) (in experiment [5]; on Streptokinase A; in the experiment on Streptococcus) were 6.46 µM (active), > 150 µM (not active) and > 150 µM (not active), respectively. Besides, the 50% inhibitory concentration (IC50) in the experiment “cells” is 17.2 µM (active). The cytotoxic concentration (CC50) was > 40 µM (active) in experiment [6] and > 20 µM (active) in experiment [7].
`Nc1ccc2c(c1)OC1(CCCC1)O2`: the IC50 is > 100 µM (inactive) in experiment [2], > 100 µM (inactive) in experiment [3] and 31.5 µM (active) in experiment [9]. The concentration at half-maximal activity (AC50) in [8] is 11.2 µM (active). The EC50 in [10] was 4.26 µM (active).
As to `Oc1ccc(CCNC(=S)Nc2ccc(Cl)cc2Cl)cc1O`, the IC50 in [11] is 18.8 µM (active); in experiment [12], 30.5 µM (active).
On to `C#CCOCCOCCOCCNc1nc(N2CCN(C(=O)C([C@@H](C)O)n3cc([C@@H](N)CCCCN)nn3)CC2)nc(N2CCN(C(=O)[C@H](CO)n3cc([C@@H](N)C(C)C)nn3)CC2)n1` (some centres undefined), for which the half-inhibitory concentration (IC50) is 7.85 µM (active) in [13], > 20 µM (inactive) on Bcl-2-related protein A1 and 8.01 µM (active) in experiment [14].
For `CSCCC(NC(=O)COc1ccccc1)C(=O)N1CCC(C(N)=O)CC1` (centres undefined), the IC50 is > 20 µM (inactive) in experiment [13], > 20 µM (inactive) at Bcl-2-related protein A1 and 12.3 µM (active) in [14].
Consider `CCCOc1ccc(C(=S)NCc2ccc(F)c(C(F)(F)F)c2)cc1`, for which the IC50 in experiment [11] was 39.2 µM (active); in [12], 71.7 µM (active).
Turning to `CC(=O)Nc1ccc(/N=C/c2c(O)c(C(=O)Nc3ccccc3)cc3ccccc23)cc1`, in [15], the AC50 was 1.01 µM (active). For the same compound, the IC50 is 50 µM (inactive) in experiment [16] and > 20 µM (inactive) in experiment [17].

For the origin of these results see ChEMBL document CHEMBL1201862, “PubChem BioAssay data set” (2004).
